From patent US10752593B2, “Compounds for use as therapeutically active substances in the treatment of retinal diseases” (ENDOGENA THERAPEUTICS, INC., priority 2018, dated 2020) come the findings set out here.

This assay relates to retinal precursor cells. Description: Sphere passaging and high-throughput drug screening: proliferation of retinal precursor cells within one week. It is filed as cell-based, mammalian. The following applies: for Cell proliferation within one week [%]: retinal precursor cells grown one week with compound in 0.1% DMSO, control without compound = 100; for increase of cell proliferation within one week: increase over control, retinal precursor cells. How it is done: Kynurenic Acid (0.2 mg/mL), trypsin (1.33 mg/mL), and hyaluronidase (0.67 mg/mL) were weighed out and dissolved in high magnesium/low calcium artificial cerebral spinal fluid (aCSF) at 37° C. Fibroblast growth factor 2 (FGF2; 10 ng/mL) and heparin (2 μg/mL) were added to 100 mL of serum-free media (SFM). Ovomucoid trypsin inhibitor (1 mg/mL) was dissolved in warm SFM and sterile filtered ([…]).
A dissecting microscope, cold light source, and sterile surgical instruments were set up inside of a sterile biological safety cabinet (BSC). Mammalian eyes were enucleated and placed in a petri dish containing cold, sterile aCSF. Under the dissecting microscope, hair, connective tissue, and the dorsal and ventral oblique muscles were cleared from the scleral/corneal border with two sets of forceps. Next, curved or angled micro-dissecting scissors were used to cleave any remaining extraocular muscle tissue, the optic nerve, and cut the eyeball into symmetrical halves; beginning and finishing the cut from the hole left by the optic nerve. Using two sets of forceps to grasp the cornea, the two eye halves were peeled apart. The lens, optic nerve, and vitreous were separated from the eye shells and the eye shells were transferred into a new petri dish (also containing cold, sterile aCSF). To isolate the ciliary epithelium (CE), eye shells were oriented with the cornea on the right and retinal pigmented epithelium (RPE) on the left. A pair of straight forceps were used to pin down the eye shell on the RPE side while a scalpel blade was inserted between the CE and the iris, using pressure to slice the iris/cornea side off from the rest of the shell. Next, the scalpel was run along the border between the CE and the RPE to obtain the CE isolated as a thin strip of tissue. The CE strips were then transferred to a 35 mm dish containing 2 mL of dispase solution (Sigma; T1005) and incubated for 10 minutes at 37° C. Next, the strips were transferred from dispase into a 35 mm dish containing 2 mL of sterile filtered kynurenic acid, trypsin and hyaluronidase solution and incubated at 37° C. for 10 minutes. After incubation, the dish was returned to the dissecting scope, and the CE strips were pinned down with straight, non-serrated forceps, while non-serrated curved forceps were used to scrape the CE off from the underlying sclera. The bare scleral strips were then discarded, such that only the CE cells remained in the enzyme solution. Using a fire-polished, cotton-plugged glass pipette, the cells and enzyme solution were transferred to a 15 mL tube and triturated approximately 45 times to break apart the tissue. The 15 mL tube/cell suspension was centrifuged for 5 minutes at 1500 rpm. The supernatant was gently aspirated from the resulting pellet using a fire-polished, cotton-plugged glass pipette and 2 mL of trypsin inhibitor solution was added to the pellet. Using a small borehole, fire-polished, cotton-plugged glass pipette, the sample was triturated approximately 45 times until it was a single-cell suspension. The 15 mL tube/cell suspension was centrifuged for 5 minutes at 1500 rpm. The supernatant was gently aspirated from the resulting pellet and 1-2 mL of SFM with FGF2 and heparin (plating media) was added. The cells and media were mixed to ensure a uniform cell suspension and a 10 uL sample was taken and cell density was determined. The cells were then seeded and cultured at 10c/μL in culture-treated plates or flasks. After one week, roughly 1 in 500 cells proliferated to form free-floating, clonal spheres greater than 80 μm in diameter.
Human-derived spheres were passaged using the kynurenic acid, trypsin, hyaluronidase enzyme solution with the addition of collagenase I (0.5 mg/mL), collagenase II (0.5 mg/mL) and elastase (0.1 mg/mL). Mouse-derived spheres were passaged using hyaluronidase (0.67 mg/mL), collagenase I (0.5 mg/mL), and collagenase II (0.5 mg/mL) dissolved in Accustase solution (Sigma; SCR005). […]

Where [1] appears, read: results table after the methods.

Molecules are shown by their SMILES.

Take `O=C(Cc1ccc(Cl)cc1)Nc1ccc(-c2cnco2)c(F)c1` [Compound E1039, 2-(4-chlorophenyl)-N-(3-fluoro-4-(oxazol-5-yl)phenyl)acetamide]: the “Cell proliferation within one week [%]” value by setting is: under setting [1], 107%; (concentration not given) 107%.

As to `O=C(Cc1ccccc1Cl)Nc1ccc(-c2ccncc2)cc1` [Compound E1060, 2-(2-chlorophenyl)-N-(4-(pyridin-4-yl)phenyl)acetamide], the “increase of cell proliferation within one week” value was determined as 44%. Further, the “Cell proliferation within one week [%]” value under setting [1] turned out to be 144%.

As to `O=C(Cc1ccc(F)cc1F)Nc1ccc(-c2cnco2)c(Cl)c1` [Compound E0149, N-(3-chloro-4-(oxazol-5-yl)phenyl)-2-(2,4-difluorophenyl)acetamide], the “increase of cell proliferation within one week” value stood at 57%. The “Cell proliferation within one week [%]” value under setting [1] is 157%. In addition, the “Cell proliferation within one week [%]” value (concentration not given) is on record as 157%.

Take `O=C(Cc1ccccc1C(F)(F)F)Nc1ccc(-c2cnco2)c(F)c1` [Compound E1051, N-(3-fluoro-4-(oxazol-5-yl)phenyl)-2-(2-(trifluoromethyl)phenyl)acetamide]: the “Cell proliferation within one week [%]” value under setting [1] is reported as 118% and the “Cell proliferation within one week [%]” value (concentration not given) is 118%.

Take `O=C(Cc1ccccc1OC(F)F)Nc1ccc(-c2cnco2)c(Cl)c1` [Compound E1020, N-(3-chloro-4-(oxazol-5-yl)phenyl)-2-(2-(difluoromethoxy)phenyl)acetamide]: the “Cell proliferation within one week [%]” value reads like this: under setting [1], 135%; (concentration not given) 135%.

Take `COc1cc(NC(=O)Cc2cccc(C(F)(F)F)c2)ccc1-c1ccncc1` [Compound E1070, N-(3-methoxy-4-(pyridin-4-yl)phenyl)-2-(3-(trifluoromethyl)phenyl)acetamide]: under setting [1], the “Cell proliferation within one week [%]” value is given as 106%.

As to `O=C(Cc1cc(F)ccc1Cl)Nc1ccc(-c2cnco2)c(F)c1` [Compound E1030, 2-(2-chloro-5-fluorophenyl)-N-(3-fluoro-4-(oxazol-5-yl)phenyl)acetamide], the “Cell proliferation within one week [%]” value is, setting by setting: under setting [1], 133%; (concentration not given) 133%.

`COc1cccc(CC(=O)Nc2ccc(-c3ccncc3)cc2)c1` [Compound E1078, 2-(3-methoxyphenyl)-N-(4-(pyridin-4-yl)phenyl)acetamide]: under setting [1], the “Cell proliferation within one week [%]” value amounted to 136%.

As to `O=C(Cc1ccccc1Cl)Nc1ccc(-c2cnco2)c(F)c1` [Compound E1032, 2-(2-chlorophenyl)-N-(3-fluoro-4-(oxazol-5-yl)phenyl)acetamide], the “Cell proliferation within one week [%]” value stood at 137% under setting [1] and 137% (concentration not given).

Turning to `COc1ccccc1CC(=O)Nc1ccc(-c2cnco2)c(Cl)c1` [Compound E1024, N-(3-chloro-4-(oxazol-5-yl)phenyl)-2-(2-methoxyphenyl)acetamide], the “Cell proliferation within one week [%]” value is, setting by setting: under setting [1], 128%; (concentration not given) 128%.
